According to patent EP4741383A1, “COMPOUND AND USE THEREOF AS ANTI-CANCER DRUG” (Tyligand Bioscience (Shanghai) Limited, priority 2023, dated 2025):
pIC50: −log10 of the molar value.

What was measured:
Format in all cases: biochemical
LMWPTP = target: T1, LMWPTP (Homo sapiens, UniProt P24666); assay: Tyrosine phosphatase selectivity (pNPP substrate), LMWPTP
T1 construct: made in house; host or cells: E. coli
T1 sequence (P24666 1-158): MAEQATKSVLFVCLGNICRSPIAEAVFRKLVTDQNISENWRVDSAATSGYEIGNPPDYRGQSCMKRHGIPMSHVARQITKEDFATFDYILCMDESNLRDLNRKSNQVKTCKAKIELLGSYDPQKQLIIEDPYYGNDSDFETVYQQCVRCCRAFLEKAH
Procedure: (§1) This experiment evaluated the selectivity of the disclosed compounds against tyrosine phosphatases, including SHP1, HePTP, Laforin, LMWPTP, LYP, PTP1B, PRL2, SSU72, VHR, FAP1, STEP, CDC14A, CD45, MEG2, and PP5, all expressed and purified from E. coli.
(§2) Phosphatase activity was measured using p-nitrophenyl phosphate (pNPP) (Fisher Scientific) as the substrate in 50 mM 3,3-dimethylglutaric acid buffer (pH 7.0, containing 1 mM EDTA), with ionic strength adjusted to 0.15 M with NaCl. […] After 10-60 minutes, the reaction was quenched by adding 20 µL of 5 N NaOH. Wells without enzyme were used as controls for correction. The amount of the product, p-nitrophenol, was determined by measuring the absorbance at 405 nm using a Spectra MAX340 microplate spectrophotometer (Molecular Devices), with a molar extinction coefficient of 18000 M^-1cm^-1.
(§3) Data were analyzed using GraphPad Prism software. Dose-response curves were obtained by fitting data using the nonlinear S-curve regression Dose-response-inhibition equation, and IC50 values were calculated.

SSU72 = target: T2, SSU72 (Homo sapiens, UniProt Q9NP77); assay: Tyrosine phosphatase selectivity (pNPP substrate), SSU72
T2 construct: made in house; host or cells: E. coli
T2 sequence (Q9NP77 1-194): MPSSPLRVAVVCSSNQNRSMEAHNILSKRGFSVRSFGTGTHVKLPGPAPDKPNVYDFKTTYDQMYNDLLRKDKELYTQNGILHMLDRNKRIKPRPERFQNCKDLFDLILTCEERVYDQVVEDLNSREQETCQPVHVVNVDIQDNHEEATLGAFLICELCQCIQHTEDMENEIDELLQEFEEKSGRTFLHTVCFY
Procedure: as §1, §2, §3

STEP = target: T3, STEP (Homo sapiens, UniProt P54829); assay: Tyrosine phosphatase selectivity (pNPP substrate), STEP
T3 construct: made in house; host or cells: E. coli
T3 sequence (P54829 1-565): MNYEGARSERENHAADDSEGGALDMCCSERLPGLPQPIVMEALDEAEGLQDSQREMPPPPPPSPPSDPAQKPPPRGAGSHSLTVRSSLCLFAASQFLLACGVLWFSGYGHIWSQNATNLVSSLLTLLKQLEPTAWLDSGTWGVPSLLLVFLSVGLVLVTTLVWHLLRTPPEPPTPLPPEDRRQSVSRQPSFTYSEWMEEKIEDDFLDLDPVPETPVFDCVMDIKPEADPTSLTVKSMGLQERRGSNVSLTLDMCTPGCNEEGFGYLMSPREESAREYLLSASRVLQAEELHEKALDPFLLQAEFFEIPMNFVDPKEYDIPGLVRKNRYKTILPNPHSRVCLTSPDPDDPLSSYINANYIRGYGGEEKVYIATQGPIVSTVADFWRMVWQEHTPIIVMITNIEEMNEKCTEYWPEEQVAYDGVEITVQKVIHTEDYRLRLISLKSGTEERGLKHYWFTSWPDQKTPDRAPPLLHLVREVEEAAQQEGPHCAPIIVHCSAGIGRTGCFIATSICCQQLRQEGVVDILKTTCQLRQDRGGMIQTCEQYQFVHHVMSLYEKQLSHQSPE
Procedure: as §1, §2, §3

VHR = target: T4, VHR (Homo sapiens, UniProt P51452); assay: Tyrosine phosphatase selectivity (pNPP substrate), VHR
T4 construct: made in house; host or cells: E. coli
Procedure: as §1, §2, §3

FAP1 [1] = target: T5, FAP1 (Homo sapiens, UniProt Q12923); assay: Tyrosine phosphatase selectivity (pNPP substrate), FAP1; conditions: FAP1, pNPP substrate
T5 sequence (Q12923 2163-2477): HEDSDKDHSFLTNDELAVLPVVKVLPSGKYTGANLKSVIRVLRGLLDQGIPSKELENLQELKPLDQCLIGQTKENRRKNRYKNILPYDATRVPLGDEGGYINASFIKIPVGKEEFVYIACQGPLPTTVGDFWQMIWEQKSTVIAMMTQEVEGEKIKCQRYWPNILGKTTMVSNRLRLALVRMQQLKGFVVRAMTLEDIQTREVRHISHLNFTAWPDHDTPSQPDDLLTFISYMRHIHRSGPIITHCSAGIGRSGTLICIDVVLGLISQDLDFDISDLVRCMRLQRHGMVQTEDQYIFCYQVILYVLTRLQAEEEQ
Procedure: as §1, §2, §3

FAP1 [2] = assay: as above; conditions: selectivity ratio FAP1 over SHP2
Procedure: as §1, §2, §3

CDC14A = target: T6, CDC14A (Homo sapiens, UniProt Q9UNH5); assay: Tyrosine phosphatase selectivity (pNPP substrate), CDC14A
T6 construct: made in house; host or cells: E. coli
T6 sequence (Q9UNH5 1-594): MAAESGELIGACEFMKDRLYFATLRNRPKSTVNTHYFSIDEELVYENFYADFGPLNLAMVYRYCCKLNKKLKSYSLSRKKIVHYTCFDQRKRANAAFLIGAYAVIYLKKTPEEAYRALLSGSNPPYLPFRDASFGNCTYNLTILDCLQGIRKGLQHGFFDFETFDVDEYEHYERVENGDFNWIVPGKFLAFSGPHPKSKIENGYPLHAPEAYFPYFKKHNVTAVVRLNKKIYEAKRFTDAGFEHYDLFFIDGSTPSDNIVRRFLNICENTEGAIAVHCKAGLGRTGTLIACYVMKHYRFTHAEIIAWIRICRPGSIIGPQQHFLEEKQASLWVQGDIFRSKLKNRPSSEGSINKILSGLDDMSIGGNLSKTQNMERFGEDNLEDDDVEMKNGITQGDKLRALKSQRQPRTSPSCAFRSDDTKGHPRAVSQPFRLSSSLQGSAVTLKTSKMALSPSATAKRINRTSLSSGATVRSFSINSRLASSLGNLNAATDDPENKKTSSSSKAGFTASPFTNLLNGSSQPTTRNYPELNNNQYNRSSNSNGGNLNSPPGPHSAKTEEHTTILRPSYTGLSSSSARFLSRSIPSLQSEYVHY
Procedure: as §1, §2, §3

T4 sequence (P51452 whole entry, species assumed): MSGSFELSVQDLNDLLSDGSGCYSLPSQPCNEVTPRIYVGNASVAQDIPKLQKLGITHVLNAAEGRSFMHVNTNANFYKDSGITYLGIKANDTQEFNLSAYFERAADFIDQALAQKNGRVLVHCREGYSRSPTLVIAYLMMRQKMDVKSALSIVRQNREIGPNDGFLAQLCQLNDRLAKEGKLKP

pIC50 (LMWPTP; LMPTP*, pNPP substrate): < 4.70 | IC50PTP/IC50SHP2 LMPTP* (LMWPTP; selectivity ratio LMPTP* over SHP2): 740.7 | pIC50 (SSU72; SSU72, pNPP substrate): > 5.52 | IC50PTP/IC50SHP2 SSU72 (SSU72; selectivity ratio SSU72 over SHP2): 111.1 | pIC50 (STEP; STEP, pNPP substrate): 4.97 | IC50PTP/IC50SHP2 STEP (STEP; selectivity ratio STEP over SHP2): 392.6 | pIC50 (VHR; VHR, pNPP substrate): 4.99 | IC50PTP/IC50SHP2 VHR (VHR; selectivity ratio VHR over SHP2): 381.5 | pIC50 (FAP1 [1]): 4.87 | IC50PTP/IC50SHP2 FAP1 (FAP1 [2]): 500 | pIC50 (CDC14A; CDC14A, pNPP substrate): < 4.30 | IC50PTP/IC50SHP2 CDC14A (CDC14A; selectivity ratio CDC14A over SHP2): 1851.9
SMILES: O=C(Nc1ccc(-c2ccsc2)cc1)C(=O)Nc1ccc(-c2cc3cc(F)c(-c4nnn[nH]4)nc3n2C2CCC2)cc1 [Example 132]
